What is called IC50 is the concentration needed to halve the response being measured.

Test [1] deals with DLD-1-cancer cells. To be noted: cited from earlier work.
Test [2] deals with T1, GST-tagged Tankyrase-1 (1023-1327 aa) (Homo sapiens, UniProt O95271).
T1 construct: GST-tagged Tankyrase-1 (1023-1327 aa)
The test is described as follows: Tankyrase 1 autoparsylation assay (HTRF enzyme assay). It counts as biochemical. Here is the method:
(§1) The autoparsylation assay was run in two steps: the enzymatic reaction in which GST-tagged Tankyrase-1, resp Tankyrase-2 transferred biotinylated ADP-ribose to itself from biotinylated NAD as co-substrate and the detection reaction where a time resolved FRET between cryptate labelled anti-GST bound to the GST tag of the enzyme and Xlent® labelled-streptavidin bound the biotin-parsylation residue was analysed. The autoparsylation activity was detectable directly via the increase in HTRF signal.
(§2) The autoparsylation assay was performed as 384-well HTRF® (Cisbio, Codolet, France) assay format in Greiner low volume nb 384-well microtiter plates and was used for high throughput screen. 250 nM GST-tagged Tankyrase-1 (1023-1327 aa), respectively about 250 nM GST-tagged Tankyrase-2 (873-1166 aa) and 5 μM bio-NAD (Biolog, Life science Inst., Bremen, Germany) as co-substrate were incubated in a total volume of 5 μl (50 mM HEPES, 4 mM Mg-chloride, 0.05% Pluronic F-68, 1.4 mM DTT, 0.5% DMSO, pH 7.7) in the absence or presence of the test compound (10 dilution concentrations) for 90 min at 30° C. The reaction was stopped by the addition of 1 μl 50 mM EDTA solution. 2 μl of the detection solution (1.6 μM SA-Xlent® (Cisbio, Codolet, France), 7.4 nM Anti-GST-K® (Eu-labelled anti-GST, Cisbio, Codolet, France) in 50 mM HEPES, 800 mM KF, 0.1% BSA, 20 mM EDTA, 0.1% CHAPS, pH 7.0) were added. After 1 h incubation at room temperature the HTRF was measured with an Envision multimode reader (Perkin Elmer LAS Germany GmbH) at excitation wavelength 340 nm (laser mode) and emission wavelengths 615 nm and 665 nm. The ratio of the emission signals was determined. The full value used was the inhibitor-free reaction. The pharmacological zero value used was XAV-939 (Tocris) in a final concentration of 5 μM. The inhibitory values (IC50) were determined using either the program Symyx Assay Explorer® or Condosseo® from GeneData.
(Time-resolved FRET reads energy transfer from a long-lived donor to a nearby acceptor.)

Test [3] has as its target T2, His-tagged Parp-1 (Homo sapiens, UniProt P09874).
T2 construct: purchased Enzo Life Sciences GmbH, Lörrach, Germany
The test is described as follows: PARP-1 autoparsylation assay (HTRF). It counts as biochemical. To be noted: read-out: IC50 PARP1. How it is done:
Biochemical Activity Testing of PARP-1: Autoparsylation Assay
The autoparsylation assay was run in two steps: the enzymatic reaction in which His-tagged Parp-1 transferred biotinylated ADP-ribose/ADP-ribose to itself from biotinylated NAD/NAD as co-substrate and the detection reaction where a time resolved FRET between cryptate labelled anti-His antibody bound to the His tag of the enzyme and Xlent® labelled-streptavidin bound the biotin-parsylation residue was analysed. The autoparsylation activity was detectable directly via the increase in HTRF signal.
The autoparsylation assay was performed as 384-well HTRF® (Cisbio, Codolet, France) assay format in Greiner low volume nb 384-well microtiter plates. 35 nM His-tagged Parp-1 (human, recombinant, Enzo Life Sciences GmbH, Lörrach, Germany) and a mixture of 125 nM bio-NAD (Biolog, Life science Inst., Bremen, Germany) and 800 nM NAD as co-substrate were incubated in a total volume of 6 μl (100 mM Tris/HCl, 4 mM Mg-chloride, 0.01% IGEPAL® CA630, 1 mM DTT, 0.5% DMSO, pH 8, 13 ng/μl activated DNA (BPS Bioscience, San Diego, US)) in the absence or presence of the test compound (10 dilution concentrations) for 150 min at 23° C. The reaction was stopped by the addition of 4 μl of the Stop/detection solution (70 nM SA-Xlent® (Cisbio, Codolet, France), 2.5 nM Anti-His-K® (Eu-labelled anti-His, Cisbio, Codolet, France) in 50 mM HEPES, 400 mM KF, 0.1% BSA, 20 mM EDTA, pH 7.0). After 1 h incubation at room temperature the HTRF was measured with an Envision multimode reader (Perkin Elmer LAS Germany GmbH) at excitation wavelength 340 nm (laser mode) and emission wavelengths 615 nm and 665 nm. The ratio of the emission signals was determined. The full value used was the inhibitor-free reaction. The pharmacological zero value used was Olaparib (LClabs, Woburn, US) in a final concentration of 1 μM. The inhibitory values (IC50) were determined using either the program Symyx Assay Explorer® or Condosseo® from GeneData.

In test [4] the target is T3, GST-tagged Tnks-2 (873-1166 aa) (Homo sapiens, UniProt Q9H2K2).
T3 construct: GST-tagged Tnks-2 (873-1166 aa, prepared in-house); made in house
The test is described as follows: TNKS 2 activity ELISA (autoparsylation assay). It counts as biochemical. To be noted: read-out: IC50 tankyrase 2 (ELISA assay). How it is done: (§3) Biochemical Activity Testing of TNKS 1 and 2: Activity ELISA (Autoparsylation Assay)
(§4) For analysis of autoparsylation activity of TNKS 1 and 2 an activity ELISA was performed: In the first step GST tagged TNKS was captured on a Glutathione coated plate. Then the activity assay with biotinylated NAD was performed in the absence/presence of the compounds. During the enzymatic reaction GST tagged TNKS transferred biotinylated ADP-ribose to itself from biotinylated NAD as co-substrate. For the detection streptavidin-HRP conjugate was added that bound to the biotinylated TNKS and was thereby captured to the plates. The amount of biotinylated resp autoparsylated TNKS was detected with a luminescence substrate for HRP. The level of the luminescence signal correlated directly with the amount of autoparsylated TNKS and therefore with activity of TNKS.
(§5) The activity ELISA was performed in 384 well Glutathione coated microtiter plates (Express capture Glutathione coated plate, Biocat, Heidelberg, Germany). The plates were pre-equilibrated with PBS. Then the plates were incubated with 50 μl 20 ng/well GST-tagged Tnks-1 (1023-1327 aa, prepared in-house), respectively GST-tagged Tnks-2 (873-1166 aa, prepared in-house) in assay buffer (50 mM HEPES, 4 mM Mg-chloride, 0.05% Pluronic F-68, 2 mM DTT, pH 7.7) overnight at 4° C. The plates were washed 3 times with PBS-Tween-20. The wells were blocked by incubation at room temperature for 20 minutes with 50 μl blocking buffer (PBS, 0.05% Tween-20, 0.5% BSA). Afterwards the plates were washed 3 times with PBS-Tween-20. The enzymatic reaction was performed in 50 μl reaction solution (50 mM HEPES, 4 mM Mg-chloride, 0.05% Pluronic F-68, 1.4 mM DTT, 0.5% DMSO, pH 7.7) with 10 μM bio-NAD (Biolog, Life science Inst., Bremen, Germany) as co-substrate in the absence or presence of the test compound (10 dilution concentrations) for 1 hour at 30° C. The reaction was stopped by 3 times washing with PBS-Tween-20. For the detection 50 μl of 20 ng/μl Streptavidin, HRP conjugate (MoBiTec, Göttingen, Germany) in PBS/0.05% Tween-20/0.01% BSA were added and the plates were incubated for 30 minutes at room temperature. After three times washing with PBS-Tween-20 50 μl of SuperSignal ELISA Femto Maximum sensitivity substrate solution (ThermoFisherScientific (Pierce), Bonn, Germany) were added. Following a 1 minute incubation at room temperature luminescence signals were measured with an Envision multimode reader (Perkin Elmer LAS Germany GmbH) at 700 nm. The full value used was the inhibitor-free reaction. The pharmacological zero value used was XAV-939 (Tocris) in a final concentration of 5 μM. The inhibitory values (IC50) were determined using either the program Symyx Assay Explorer® or Condosseo® from GeneData.

Test [5] deals with T4, GST-tagged Tankyrase-2 (873-1166 aa) (Homo sapiens, UniProt Q9H2K2).
T4 construct: GST-tagged Tankyrase-2 (873-1166 aa)
The test is described as follows: Tankyrase 2 autoparsylation assay (HTRF enzyme assay). It counts as biochemical. How it is done: as §1, §2

For test [6], the target named is T5, GST-tagged Tnks-1 (1023-1327 aa) (Homo sapiens, UniProt O95271).
T5 construct: GST-tagged Tnks-1 (1023-1327 aa, prepared in-house); made in house
The test is described as follows: TNKS 1 activity ELISA (autoparsylation assay). It counts as biochemical. To be noted: read-out: IC50 tankyrase 1 (ELISA assay). How it is done:
as §3, §4, §5
On the technique in general: In an ELISA, binding on a coated surface is turned into a signal by an enzyme label.

T3 sequence (Q9H2K2 873-1166): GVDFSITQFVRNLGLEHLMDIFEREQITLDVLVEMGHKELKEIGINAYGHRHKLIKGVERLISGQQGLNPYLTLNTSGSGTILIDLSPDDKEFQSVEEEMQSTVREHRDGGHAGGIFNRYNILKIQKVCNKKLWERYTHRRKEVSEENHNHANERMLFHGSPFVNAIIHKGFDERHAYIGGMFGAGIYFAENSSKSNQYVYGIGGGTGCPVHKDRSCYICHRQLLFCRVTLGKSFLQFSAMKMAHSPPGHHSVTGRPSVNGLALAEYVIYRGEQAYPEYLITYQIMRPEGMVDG
T4 sequence (Q9H2K2 873-1166): as above
T1 sequence (O95271 1023-1327): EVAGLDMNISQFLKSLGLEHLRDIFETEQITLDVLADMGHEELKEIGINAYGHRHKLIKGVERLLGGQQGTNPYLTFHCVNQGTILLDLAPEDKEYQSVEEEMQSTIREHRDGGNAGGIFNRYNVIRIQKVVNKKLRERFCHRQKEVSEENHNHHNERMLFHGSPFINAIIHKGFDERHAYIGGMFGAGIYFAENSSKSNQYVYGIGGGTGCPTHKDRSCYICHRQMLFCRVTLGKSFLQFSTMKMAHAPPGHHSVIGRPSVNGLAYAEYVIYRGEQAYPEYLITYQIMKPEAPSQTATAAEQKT
T5 sequence (O95271 1023-1327): as above
T2 sequence (P09874 whole entry): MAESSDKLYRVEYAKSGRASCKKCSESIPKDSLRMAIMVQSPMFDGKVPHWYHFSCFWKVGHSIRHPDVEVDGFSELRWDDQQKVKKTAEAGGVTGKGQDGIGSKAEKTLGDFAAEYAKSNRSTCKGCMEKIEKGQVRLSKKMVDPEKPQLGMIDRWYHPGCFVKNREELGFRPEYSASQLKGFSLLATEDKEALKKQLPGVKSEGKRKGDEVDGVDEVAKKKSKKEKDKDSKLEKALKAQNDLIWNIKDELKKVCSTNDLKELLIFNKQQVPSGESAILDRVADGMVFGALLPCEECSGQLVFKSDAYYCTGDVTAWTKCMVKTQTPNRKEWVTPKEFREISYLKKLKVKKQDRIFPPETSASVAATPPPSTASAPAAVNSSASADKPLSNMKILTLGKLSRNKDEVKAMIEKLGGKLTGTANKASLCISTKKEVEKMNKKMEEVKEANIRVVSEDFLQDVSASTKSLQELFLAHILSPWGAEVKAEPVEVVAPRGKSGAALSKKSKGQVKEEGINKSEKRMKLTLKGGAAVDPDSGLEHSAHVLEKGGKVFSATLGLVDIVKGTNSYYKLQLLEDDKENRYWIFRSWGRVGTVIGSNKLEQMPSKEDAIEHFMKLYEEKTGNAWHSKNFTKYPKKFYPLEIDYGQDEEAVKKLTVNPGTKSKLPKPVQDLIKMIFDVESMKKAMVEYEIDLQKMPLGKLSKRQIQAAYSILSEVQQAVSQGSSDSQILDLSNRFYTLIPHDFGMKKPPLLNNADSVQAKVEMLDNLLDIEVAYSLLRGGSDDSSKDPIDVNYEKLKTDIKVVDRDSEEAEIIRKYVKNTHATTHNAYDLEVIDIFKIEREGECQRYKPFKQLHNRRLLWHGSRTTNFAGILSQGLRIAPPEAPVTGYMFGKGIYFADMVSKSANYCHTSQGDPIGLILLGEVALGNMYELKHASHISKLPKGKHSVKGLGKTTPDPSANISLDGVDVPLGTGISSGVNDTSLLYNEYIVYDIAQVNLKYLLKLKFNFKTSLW

As to `Oc1nc(-c2ccc(C(F)(F)F)cc2)nc2c1CSCC2` [XAV939], the “growth of DLD-1-cancer cells” value in test [1] is on record as “inhibits growth”.
Consider `NC(=O)c1ccccc1N1CCN(c2nc3c(c(=O)[nH]2)CCCC3)CC1` [Compound A34, 2-[4-(4-oxo-5,6,7,8-tetrahydro-3H-quinazolin-2-yl)piperazin-1-yl]benzamide], for which the IC50 in test [2] is less than 300 nM; in test [3], less than 300 nM; in test [4], less than 300 nM; in test [5] it was 300 to 3000 nM; in test [6], less than 300 nM.

The values above are taken from US9339503B2, “Tetrahydro-quinazolinone derivatives as TANK and PARP inhibitors” (MERCK PATENT GMBH, priority 2012, dated 2016).
